Calls of active or inactive are those of the source. The calls are words filed in the database; no cut-off is given here.
Tests used:
HL-60 = assay: Cytotoxicity against human HL60 cells; assay type: functional, cell-based
Detroit 551 = assay: Cytotoxicity against human Detroit 551 cells; assay type: cell-based
Mus musculus [1] = assay: Toxicity in human Hep3B cells xenografted nude mouse assessed as mouse body weight changes at 20 mg/kg, ip qd administered for 5 days per week for 4 consecutive weeks; assay type: organism-based, Hep 3B2; design: dose 20 mg/kg, route intraperitoneal; conditions: in vivo, 120 h
Mus musculus [2] = assay: Toxicity in human Hep3B cells xenografted nude mouse assessed as mouse body weight changes at 10 mg/kg, ip qd administered for 5 days per week for 4 consecutive weeks; assay type: organism-based, Hep 3B2; design: dose 10 mg/kg, route intraperitoneal; conditions: in vivo, 120 h
Hep 3B2 = assay: Antitumor activity against human Hep3B cells xenografted in nude mouse assessed as inhibition of tumor growth at 10 mg/kg, ip qd administered for 5 days per week for 4 consecutive weeks; assay type: functional, organism-based; design: dose 10 mg/kg
[3] = Cytotoxicity against human H460 cells; assay type: functional, cell-based; conditions: NCI-H460
[4] = Cytotoxicity against human Hep3B cells; assay type: functional, cell-based, Hep 3B2
[5] = Antitumor activity against human Hep3B cells xenografted in nude mouse assessed as inhibition of tumor growth at 20 mg/kg, ip qd administered for 5 days per week for 4 consecutive weeks; assay type: functional, Hep 3B2; conditions: 120 h, route intraperitoneal, read-out: TGI
[6] = Cytotoxicity against human NCI60 cells; assay type: functional

CNc1cccc(-c2cc(=O)c3cc(N4CCCC4)ccc3[nH]2)c1
IC50 (HL-60): 6 nM
IC50 (Detroit 551): > 10000 nM
Activity (Mus musculus [1]): Non-toxic
Activity (Mus musculus [2]): Non-toxic
TGI (Hep 3B2): Active
IC50 [3]: 35 nM
IC50 [4]: 21 nM
inhibition in vivo at 20 mg/kg [5]: 70%

CN(C)c1cccc(-c2cc(=O)c3cc(N4CCCC4)ccc3[nH]2)c1
IC50 (HL-60): 5 nM
IC50 (Detroit 551): > 1000 nM
IC50 [3]: 13 nM
IC50 [4]: 15 nM

COc1cccc(-c2cc(O)c3cc(N4CCCC4)ccc3n2)c1
GI50 [6]: 1.91 nM

CCNc1cccc(-c2cc(=O)c3cc(N4CCCC4)ccc3[nH]2)c1
IC50 (HL-60): 5 nM
IC50 (Detroit 551): > 10000 nM
IC50 [3]: 20 nM
IC50 [4]: 20 nM
